Here are results for eight molecules from patent US20110008415A1, “NOVEL LIPOPHILIC COMPOSITIONS AND USES THEREOF” (UNIVERSITE DE BRETAGNE OCCIDENTALE, priority 2007, published 2011).

A short description of series [1]: pKa of basic side chain / imidazole ring. In kind it is physicochemical.
The subject of series [2] is 293T7 cells (human kidney embryonal fibroblasts). As to the kind of experiment: Transfection of 293T7 cells with luciferase plasmid/liposome complexes. It is filed as cell-based. The settings on record: for transfection efficiency when associated with co-lipids 2c or 7b compared with DOPE: 293T line cells, tests considered as a whole; for observed luminescence values: 293T cells; for efficiency gain as compared to DOPE: value in brackets. As for the experimental part:
A lipid film was prepared in a sterile flask under nitrogen by dry evaporating 1 mL of a 10.8 mM cationic lipid or a mixture of a cationic lipid/neutral lipid (molar ratio 1:1) in ethanol. The film was then hydrated with 1 mL of 10 mM HEPES buffer, pH 7.4, the solution was vigorously stirred for 3 min, then allowed to rest at 4° C. After 2 h, the solution was sonicated for 15 min in an ultrasonic bath at 37 kHz (Bioblock ultrasonic bath, Bioblock Scientific, Illkirch, France).
18 μl of a solution of liposomes at 5.4 mM were diluted in 200 μl of 10 mM HEPES buffer, pH 7.4. After 15 min, 7.5 μg of a plasmid encoding the gene of the luciferase (pTG11033; 9514 bp, Transgene S. A., Strasbourg, France) in 20 μl of 10 mM HEPES buffer, pH 7.4, were added to the liposomes and the mixture was allowed to rest for 30 min. The solution comprising the DNA/liposome complexes was adjusted to 1.5 ml with some culture medium free of serum and at 0.15M NaCl with a solution of 5M NaCl.
Two days before transfection, 293T7 cells (human kidney embryonal fibroblasts) were seeded with 1×10^5 cells in 1 mL of a culture medium in a 24-well plate. The day of the transfection, cells achieved 80% confluence. Cells were washed twice with some medium free of serum prior to adding 2.5 μg of DNA in the form of DNA/liposome complexes. After 4 h of incubation at 37° C., the medium was removed and cells were cultured for 48 h with complete culture medium.
The culture medium of the cells was removed and each well was rinsed with 500 μL of PBS. Cell detachment was obtained with 500 μL of the PBS+trypsin per well for 5 min at 37° C. The cell suspension was then centrifuged for 5 min at 250×g (1500 rpm) at 20° C. 400 μL of lysis buffers (CCLR, Promega) were added on the cell pellet, which was allowed to incubate onto ice for 15 min. After Vortex-stirring, centrifugation was effected at 12 000×g for 2 min at 4° C. The luciferase activity contained in 20 μL of supernatant was measured using a luminometer (Bertold Lumat LB 9501) for 10 seconds after injection of 100 μL of luciferin (Luciferase Assay Reagent, Promega). The light transmitted was converted to arbitrary units relative to the protein amount in the sample determined through the bicinchoninic acid method.
The protein amount in the lysate was evaluated through the BCA method (H. Hill and G. Straka, 1998). Proteins were contacted with bicinchoninic acid (BCA) and copper ions in an alkaline medium. The copper ions resulting from the protein-mediated reduction thereof formed stable, colored complexes with BCA. Coloration is objectified through spectrophotometric determination (562 nm). Once a standard range was obtained using bovine serum albumin, the weight of protein contained in the cell lysates was calculated.

For series [3] the following is noted: basic side chain / imidazole ring; cited from earlier work.
The mark [4] stands for this setting: co-lipid 2c (molar ratio 1:1), 48 h after transfection.
Setting [5] is: co-lipid 7b (molar ratio 1:1), 48 h after transfection.
[6] abbreviates: co-lipid DOPE (molar ratio 1:1), 48 h after transfection.
Setting [7] is: no co-lipid (—), luciferase plasmid pTG11033, 48 h after transfection.

Turning to `N[C@@H](Cc1c[nH]cn1)C(=O)O` [histidine], the “imidazole ring protonated at a physiological pH” value in series [1] is recorded as “about 5%”.
As for “homoarginine methyl ester dioleoyl-N-phosphoramidate [3b]”, the “transfection efficiency when associated with co-lipids 2c or 7b compared with DOPE” value (“transfection efficiency … compared with DOPE” for short) in series [2] was “more efficient”. Moreover, the observed luminescence values is 3.10^9 TRLU in series [2] (setting [4]), 3.10^7 TRLU in series [2] (setting [5]), 3.10^6 TRLU in series [2] (setting [6]) and 9.10^6 TRLU in series [2] (setting [7]). The “efficiency gain as compared to DOPE” value worked out at 1000 in series [2] (co-lipid 2c) and 10 in series [2] (co-lipid 7b).
Turning to “arginine methyl ester dioleoyl-N-phosphoramidate [3a]”, the “transfection efficiency … compared with DOPE” value in series [2] is on record as “more efficient”. Besides, the observed luminescence values in series [2] (setting [4]) is 5.10^8 TRLU; in series [2] (setting [5]), 10^6 TRLU; in series [2] (setting [6]), 5.10^6 TRLU; in series [2] (setting [7]) it was 7.10^6 TRLU. Besides, the “efficiency gain as compared to DOPE” value in series [2] (co-lipid 2c) was 100; in series [2] (co-lipid 7b), 0.2.
`COC(=O)[C@@H](N)CCCNC(=N)N` [arginine methyl ester]: the pKa in series [3] is listed as 12.48.
Consider “lysine methyl ester dioleoyl-N-phosphoramidate [compound 4]”, for which the “transfection efficiency … compared with DOPE” value in series [2] was “more efficient”. The observed luminescence values is on record as 5.10^7 TRLU in series [2] (setting [4]), 4.10^7 TRLU in series [2] (setting [5]), 3.10^7 TRLU in series [2] (setting [6]) and 2.10^7 TRLU in series [2] (setting [7]). Further, the figures for the “efficiency gain as compared to DOPE” value in series [2] (co-lipid 2c) and in series [2] (co-lipid 7b) were 1.6 and 1.3, respectively.
With `COC(=O)[C@@H](N)CCCCN` [lysine methyl ester], the pKa in series [3] is 10.57.
On to `N=C(N)NCCCC[C@H](N)C(=O)O` [Homoarginine], for which the pKa in series [3] was 12.5.
Turning to `c1c[nH]cn1` [imidazole], in series [3], the pKa entry was “about 6”.

By pKa is commonly meant the negative logarithm of the acid dissociation constant.
